# In ChEMBL document CHEMBL1158987, “Isolation and structure determination of novel phosphatidylinositol kinase inhibitors, echiguanines A and B, from Streptomyces sp” (J Nat Prod, 1991):
# Assay: Inhibition of phosphatidylinositol 4-kinase in human A431 cell membrane by liquid scintillation counting
# Assay type: cell-based
# Conditions: a-431
row,IC50 [µg/mL],SMILES
1,35,Nc1nc2c(c(=O)[nH]1)CC=N2 [7-DEAZAGUANINE]
2,0.45,O=Cc1cccc(O)c1O
3,> 100,Nc1nc(=O)[nH]c2nc[nH]c12 [ISOGUANINE]
4,> 100,Nc1nc2[nH]cnc2c(=O)[nH]1 [GUANINE]
5,> 100,Nc1[nH]cnc2ncnc1-2 [ADENINE]
6,0.25,O=c1c(-c2ccc(O)c(O)c2)coc2cc(O)cc(O)c12 [OROBOL]

row,SMILES,IC50 [µg/mL]
1,N#Cc1cn([C@@H]2O[C@H](CO)[C@@H](O)[C@H]2O)c2ncnc(N)c12 [TOYOCAMYCIN],3.3
2,O=c1[nH]cnc2nc[nH]c12 [HYPOXANTHINE],> 100
3,NCCCNC(=O)c1c[nH]c2nc(N)nc(O)c12 [ECHIGUANINE B],0.11
4,N=C(N)CCNC(=O)c1c[nH]c2nc(N)nc(O)c12 [ECHIGUANINE A],0.04
5,O=c1c(O)c(-c2ccc(O)c(O)c2)oc2cc(O)cc(O)c12 [QUERCETIN],1.8

# Assay: Toxicity in ip dosed mouse
# Assay type: organism-based
# Conditions: in vivo
row,SMILES,LD50 [mg/kg]
1,NCCCNC(=O)c1c[nH]c2nc(N)nc(O)c12 [ECHIGUANINE B],> 100
2,N=C(N)CCNC(=O)c1c[nH]c2nc(N)nc(O)c12 [ECHIGUANINE A],> 100
